The source made the active and inactive calls. The calls are words filed in the database; no cut-off is given here.
Legend:
MCF7 [1] = assay: Induction of apoptosis in human MCF7 cells assessed as viable cells at 10 uM incubated for 24 hrs by annexin V-FITC and PI staining based flow cytometry analysis (reference value: 69.60 %); assay type: functional; conditions: read-out: Activity
MDA-MB-231 [2] = assay: Induction of late apoptosis in human MDA-MB-231 cells assessed as increase in rate of formation of pycnotic nuclei at 10 uM by Hoechst 33342 and PI staining based fluorescence microscopic analysis; assay type: functional, cell-based; conditions: TDE = time-dependent effect
MCF7 [3] = assay: Induction of apoptosis in human MCF7 cells assessed as cleaved pro-caspase 8 level at 10 uM incubated for 24 hrs by Western blot analysis (reference value: 1); assay type: functional
MCF7 [4] = assay: Induction of late apoptosis in human MCF7 cells assessed as increase in rate of formation of pycnotic nuclei at 10 uM by Hoechst 33342 and PI staining based fluorescence microscopic analysis; assay type: functional, cell-based; conditions: TDE = time-dependent effect
MCF7 [5] = assay: Induction of cell death in human MCF7 cells assessed as upregulation of TNFRSF10B gene at 10 uM incubated for 24 hrs by RT-PCR analysis; assay type: functional, cell-based
MDA-MB-231 [6] = assay: Induction of apoptosis in human MDA-MB-231 cells assessed as early apoptotic cells at 10 uM incubated for 24 hrs by annexin V-FITC and PI staining based flow cytometry analysis (reference value: 0.70 %); assay type: functional
MDA-MB-231 [7] = assay: Induction of apoptosis in human MDA-MB-231 cells assessed as late apoptotic cells at 10 uM incubated for 24 hrs by annexin V-FITC and PI staining based flow cytometry analysis (reference value: 3.95 %); assay type: functional
MCF7 [8] = assay: Induction of apoptosis in human MCF7 cells assessed as late apoptotic cells at 10 uM incubated for 24 hrs by annexin V-FITC and PI staining based flow cytometry analysis (reference value: 14.60 %); assay type: functional
MCF7 [9] = assay: Induction of cell death in human MCF7 cells assessed as upregulation of BECN1 gene at 10 uM measured after 48 hrs by RT-PCR analysis; assay type: functional, cell-based
MDA-MB-231 [10] = assay: Induction of apoptosis in human MDA-MB-231 cells assessed as pro-caspase 3 level at 10 uM incubated for 24 hrs by Western blot analysis (reference value: 1); assay type: functional
MDA-MB-231 [11] = assay: Induction of apoptosis in human MDA-MB-231 cells assessed as cleaved PARP level at 10 uM incubated for 24 hrs by Western blot analysis (reference value: 1); assay type: functional
[12] = Induction of caspase 3/7 activity in human MCF7 cells assessed as induction of apoptosis by measuring necrotic cells at 10 uM incubated for 24 hrs by flow cytometry analysis (reference value: 3.30 %); assay type: functional
[13] = Induction of caspase 3/7 activity in human MCF7 cells assessed as induction of apoptosis by measuring early apoptotic cells at 10 uM incubated for 24 hrs by flow cytometry analysis (reference value: 0.70 %); assay type: functional
MCF7 [14] = assay: Induction of apoptosis in human MCF7 cells assessed as necrotic cells at 10 uM incubated for 24 hrs by annexin V-FITC and PI staining based flow cytometry analysis (reference value: 15.60 %); assay type: functional
MDA-MB-231 [15] = assay: Induction of endoplasmic reticulum stress in human MDA-MB-231 cells assessed as IRE1-alpha expression at 10 uM incubated for 24 hrs by Western blot analysis (reference value: 1); assay type: functional
MDA-MB-231 [16] = assay: Induction of late apoptosis in human MDA-MB-231 cells assessed as increase in PI […] at 10 uM by Hoechst 33342 and PI staining based fluorescence microscopic analysis; assay type: functional, cell-based; conditions: TDE = time-dependent effect
MCF7 [17] = assay: Induction of cell death in human MCF7 cells assessed as downregulation of MLKL gene at 10 uM incubated for 48 hrs by RT-PCR analysis; assay type: functional, cell-based
MDA-MB-231 [18] = assay: Induction of cell death in human MDA-MB-231 cells assessed as upregulation of BECN1 gene at 10 uM incubated for 48 hrs by RT-PCR analysis; assay type: functional, cell-based
MDA-MB-231 [19] = assay: Induction of early apoptosis in human MDA-MB-231 cells assessed as increase in rate of formation of pycnotic nuclei at 10 uM incubated for 24 hrs by Hoechst 33342 and PI staining based fluorescence microscopic analysis; assay type: functional, cell-based
[20] = test system: Epidermoid carcinoma cell line; assay: Cytotoxicity against human Epidermoid carcinoma cell line; assay type: functional, cell-based
MDA-MB-231 [21] = assay: Induction of early apoptosis in human MDA-MB-231 cells assessed as increase in PI negativity at 10 uM incubated for 24 hrs by Hoechst 33342 and PI staining based fluorescence microscopic analysis; assay type: functional, cell-based
MCF7 [22] = assay: Induction of cell death in human MCF7 cells assessed as downregulation of MLKL gene at 10 uM measured after 48 hrs by RT-PCR analysis; assay type: functional, cell-based
MDA-MB-231 [23] = assay: Induction of apoptosis in human MDA-MB-231 cells assessed as cleaved pro-caspase 3 level at 10 uM incubated for 24 hrs by Western blot analysis (reference value: 1); assay type: functional
MCF7 [24] = assay: Induction of cell death in human MCF7 cells assessed as downregulation of PARP gene at 10 uM measured after 48 hrs by RT-PCR analysis; assay type: functional, cell-based
MCF7 [25] = assay: Induction of apoptosis in human MCF7 cells assessed as cleaved pro-caspase 3 level at 10 uM incubated for 24 hrs by Western blot analysis (reference value: 1); assay type: functional
MDA-MB-231 [26] = assay: Cytotoxicity against human MDA-MB-231 cells assessed as reduction in cell viability incubated for 24 hrs by ATP based luminometry; assay type: functional; conditions: MDA-MB-231, 24 h
MCF7 [27] = assay: Induction of early apoptosis in human MCF7 cells assessed as increase in PI negativity at 10 uM incubated for 24 hrs by Hoechst 33342 and PI staining based fluorescence microscopic analysis; assay type: functional, cell-based
MDA-MB-231 [28] = assay: Induction of apoptosis in human MDA-MB-231 cells assessed as cleaved pro-caspase 8 level at 10 uM incubated for 24 hrs by Western blot analysis (reference value: 1); assay type: functional
[29] = Induction of caspase 3/7 activity in human MCF7 cells assessed as induction of apoptosis by measuring viable cells at 10 uM incubated for 24 hrs by flow cytometry analysis (reference value: 73.10 %); assay type: functional
MDA-MB-231 [30] = assay: Cytotoxicity against human MDA-MB-231 cells assessed as reduction in cell viability incubated for 48 hrs by ATP based luminometry; assay type: functional; conditions: MDA-MB-231, 48 h
MCF7 [31] = assay: Induction of apoptosis in human MCF7 cells assessed as cytokeratin 18 by measuring increase in M-30 level at 10 uM incubated for 24 hrs by ELISA; assay type: functional, cell-based
MDA-MB-231 [32] = assay: Induction of apoptosis in human MDA-MB-231 cells assessed as pro-caspase 8 level at 10 uM incubated for 24 hrs by Western blot analysis (reference value: 1); assay type: functional
[33] = Induction of caspase 3/7 activity in human MDA-MB-231 cells assessed as induction of apoptosis by measuring necrotic cells at 10 uM incubated for 24 hrs by flow cytometry analysis (reference value: 0.85 %); assay type: functional
[34] = Induction of caspase 3/7 activity in human MDA-MB-231 cells assessed as induction of apoptosis by measuring viable cells at 10 uM incubated for 24 hrs by flow cytometry analysis (reference value: 97.25 %); assay type: functional
MCF7 [35] = assay: Induction of late apoptosis in human MCF7 cells assessed as increase in PI […] at 10 uM by Hoechst 33342 and PI staining based fluorescence microscopic analysis; assay type: functional, cell-based; conditions: TDE = time-dependent effect

COC(=O)[C@@]1(C)CC[C@]2(C)CC[C@]3(C)[C@H](C(=O)C=C4[C@@]5(C)C=C(C#N)C(=O)C(C)(C)[C@@H]5CC[C@]43C)[C@@H]2C1
viability at 10 µM (MCF7 [1]): 70.7%
Activity (MDA-MB-231 [2]): Tde
fold change (FC) (MCF7 [3]): 1.01
Activity (MCF7 [4]): Tde
Activity (MCF7 [5]): Active
Activity (MDA-MB-231 [6]): 2.95%
Activity (MDA-MB-231 [7]): 69.55%
Activity (MCF7 [8]): 18.35%
Activity (MCF7 [9]): inactive
fold change (FC) (MDA-MB-231 [10]): 1.3
fold change (FC) (MDA-MB-231 [11]): 6.3
Activity [12]: 14.7%
Activity [13]: 0.55%
Activity (MCF7 [14]): 10.8%
fold change (FC) (MDA-MB-231 [15]): 1.1
Activity (MDA-MB-231 [16]): Tde
Activity (MCF7 [17]): Active
Activity (MDA-MB-231 [18]): Active
Activity (MDA-MB-231 [19]): Active
IC50 [20]: ≥ 0.3 µM
Activity (MDA-MB-231 [21]): Active
Activity (MCF7 [22]): inactive
fold change (FC) (MDA-MB-231 [23]): 12.7
Activity (MCF7 [24]): inactive
fold change (FC) (MCF7 [25]): 1.2
IC50 (MDA-MB-231 [26]): 6.83 µM
Activity (MCF7 [27]): Active
fold change (FC) (MDA-MB-231 [28]): 2.4
Activity [29]: 60.2%
IC50 (MDA-MB-231 [30]): 5.97 µM
Activity (MCF7 [31]): inactive
fold change (FC) (MDA-MB-231 [32]): 2.1
Activity [33]: 0.5%
Activity [34]: 10.35%
Activity (MCF7 [35]): Tde
